How the values were obtained:
NMR H/D exchange studies = type: physicochemical; conditions: rt
Description: Compound 7 (˜4 mg, ˜10 μmol) was dissolved in CD3OD (0.75 mL), and D2O (2 drops) was added. The reaction mixture was kept at rt and monitored by NMR (400 MHz). […] NaOD (30% w/w in D2O, 2 drops) was then added, and the solution monitored by NMR. […] After 25 h, the C5 proton peak completely disappeared.
To rule out the possibility that the loss of the C5 proton peak was due to decomposition, the resulting mixture was evaporated at rt under reduce pressure, and the residue was redissolved in CH3OH and allowed to stir for 1 day. The mixture was then evaporated to dryness in vacuo, and redissolved in CD3OD. The NMR spectrum was quickly taken, and the C5 proton peak was again observed. As before, the C5 proton peak slowly disappeared over a 1-day period.
To evaluate the importance of the imine bond on the acidity of the C5 proton, proline was dissolved in 0.75 mL CD3OD and 0.20 mL D2O and treated with […].

[1] = Stability studies of compound 8 to NaOH, LiOH and TFA (TLC); type: physicochemical; conditions: rt
Description: Stability Studies of Compound (8) to NaOH. NaOH (6 M, 20 μL, 0.12 mmol) was added to a solution of compound 8 (0.15 M, 100 μL, 0.015 mmol). The resulting mixture was allowed to react at rt over 3 days, during which the degradation of compound 8 was monitored by a ninhydrin TLC assay (CHCl3-MeOH—NH4OH(aq)=2:2:1).
Stability Studies of Compound (8) to LiOH. Compound 8 (21.9 mg, 84 μmol) was dissolved in water (2 mL) and LiOH.H2O (84.5 mg, 2.0 mmol) was added. This mixture was allowed to react at rt. While initially only starting material was observed by TLC (MeOH-EtOAc=4:1, Rf=0.26), after 24 h two new bands (Rf=0.10, 0.02) appeared. After 5 days, the solution was evaporated to dryness at rt, redissolved in MeOH (0.5 mL), and purified on chromatography silica gel. […] The other new band appears to be a mixture of species based on its NMR and MS data.
Stability Studies of Compound (8) to TFA. Compound 8 (21.7 mg, 0.083 mmol) was dissolved in MeOH (2 mL) and TFA (200 μL) was added. After 1 h, one new band (MeOH-EtOAc=2:1; Rf=0.22) was observed by TLC. The mixture was allowed to react to completion for 2 days at rt. The resulting mixture was evaporated to dryness, dissolved in MeOH (0.5 mL), and subjected to chromatography on silica gel. […] The peak for the C2 imine proton is absent, and the peak for the C5 proton is either absent or shifted.

His6-PylS = target: T1, His6-PylS (Methanosarcina barkeri, UniProt Q6WRH6); assay: Gel-shift aminoacylation assay with N-terminally His-tagged PylS; type: biochemical
T1 construct: made in house; host or cells: E. coli (inferred from the control with untransformed E. coli)
Description: Aminoacylation assay in acid-urea gels. […] Following incubation at 37° C. for 5 to 30 minutes, the reaction was terminated by addition of an equal volume of 2× loading dye (0.3 M sodium acetate, 8 M urea, pH 5.0) and charged and uncharged tRNA species analysed by acid-urea acrylamide gel electrophoresis following the methods outlined in Jester et al. Samples were electrophoresed in 14% polyacrylamide gels buffered with a 0.3 M sodium acetate-7 M urea solution, pH 5.0, at 50 volts and 4° C. for 24 hours. The same buffer without urea was used in the electrode chambers, and was replaced with fresh buffer every 6-8 hours. Finished gels were transblotted for 2 hours at 40 volts in 4° C. in a blotting solution of 10 mM Tris-acetate, 5 mM sodium acetate, and 0.5 mM EDTA, pH 8.0. The blot was then cross-linked by ultraviolet radiation (15000 μJ/cm2 per side) then prehybrized in 0.25 M sodium phosphate buffer, pH 7.2, and 5.7% SDS for at least 30 minutes. In order to detect charged and uncharged tRNACUA a 72 base oligonucleotide complementary to full length of tRNACUA was labeled with γ-^32P ATP and polynucleotide kinase. […] Radioactivity on the blot was imaged and analyzed using a STORM Phosphorimager (Amersham Biosciences).

[2] = system: E. coli BL21 (DE3) expressing pylT, pylS and mtmB1; assay: Pyrrolysine-dependent amber suppression (mtmB1 UAG readthrough, anti-MtmB immunoblot); type: cell-based; conditions: strain expressing pylT, 1 mM amino acid, 4 h induction
Description: As a reporter of UAG translation as a sense codon, we introduced the mtmB1 gene into E. coli BL21 (DE3). […] Plasmids were constructed bearing combinations of mtmB1, pylS and/or pylT under the control of the T7 promoter, and transformed into E. coli. […] Total cellular proteins from each strain were then separated by SDS-polyacrylamide-gel electrophoresis and mtmB1 gene products were detected by subsequent immunoblotting with polyclonal antibody specific for purified M. barkeri MtmB.
To test for amber suppression, overnight cultures were grown in Luria-Bertani broth (3 ml) with 100 μg ml^−1 ampicillin. Subsequently, 200 μl was inoculated into 1 ml fresh medium and grown to a D600 of 0.6. […] The mtmB1 gene products in equivalent amounts of lysates were then analysed by immunoblotting of a SDS 12.5% polyacrylamide gel with affinity-purified rabbit anti-MtmB antibody^6. The Rainbow Molecular Weight markers (Amersham Biosciences) were used.
To test for amber suppression, overnight cultures of a strain bearing one of the plasmids were grown in LB broth (3 mL) with 100 ug/ml final ampicillin. Subsequently, 200 μl of each culture was inoculated into 1 ml of fresh LB medium with ampicillin, and grown to an A600 of approximately 0.6. […]

PylS-His6 [3] = target: T2, PylS-His6 (Methanosarcina barkeri, UniProt Q6WRH6); assay: Pyrrolysine dependent pyrophosphate:ATP exchange; type: biochemical; design: apparent Vmax: unit not given here
T2 construct: made in house; host or cells: E. coli BL21 (DE3)
Description: As a prerequisite of tRNA aminoacylation, an aminoacyl-adenylate and pyrophosphate are formed from the amino acid and ATP by an aminoacyl-tRNA synthetase. This reversible activation reaction can be assayed by the isotopic exchange of ^32P-pyrophosphate into ATP dependent on the addition of the cognate amino acid for the aminoacyl-tRNA synthetase in question.
The pyrophosphate exchange reaction was essentially performed following the method of Cole and Schimmel. All reactions were performed in duplicate at 37° C. The 100 to 200 μl reactions contained (unless noted) 0.3 to 1 μM PylSHis6. […] The specific activity of the radiolabel was adjusted from 4 to 10 dpm/pmol). The concentration of protein was 0.3 to 1 μM. At specific times, 25 μl aliquots were removed and quenched in 500 μl of a stop solution containing 1.6% (w/v) activated acid-washed charcoal (Sigma Chemical Co., St. Louis, Mo.), 80 mM sodium tetrapyrophosphate, and 3.5% (v/v) perchloric acid. Samples were filtered through Whatman GF/C glass-fiber filters and then the filter was washed three times with 5 ml of 40 mM sodium tetrasodium pyrophosphate solution containing 1.7% perchloric acid (v/v) and once with 5 ml 100% ethanol. Filters were dried at 80° C. for 5 minutes then placed in 20 ml scintillation vials containing 10 ml of Ultima Gold F scintillation cocktail (PerkinElmer), shaken once, and counted in a liquid scintillation analyzer. Identical reactions without amino acid, ATP, or enzyme were also set up as negative controls in duplicate. […] One substrate was kept constant at a concentration higher than its respective apparent Km value.

PylS-His6 [4] = target: T2, PylS-His6; assay: Aminoacylation of tRNACUA in acid-urea gels (gel-shift, northern blot); type: biochemical; conditions: for aminoacylation of tRNA^lys in the M. acetivorans tRNA pool: tRNA^lys instead of tRNACUA
Text: Recombinant PylS-His6 was purified by Ni affinity chromatography from lysates of Escherichia coli expressing the recombinant Methanosarcina barkeri pylS gene modified so as to add a carboxy-terminal hexahistidine tag to the gene product. The tRNA pool extracted from Methanosarcina acetivorans or tRNACUA transcribed in vitro was used in charging experiments. Charged and uncharged tRNA species were separated by electrophoresis in a denaturing acid-urea polyacrylamide gel and tRNACUA was specifically detected by northern blotting with an oligonucleotide probe.
The reaction was terminated after 5-30 min at 37° C. with an equal volume of 0.3 M sodium acetate, 8 M urea pH 5.0. Charged and uncharged tRNA were separated by acid-urea acrylamide gel electrophoresis, blotted to nitrocellulose and probed with a 5μ ^32P-end-labelled, 72-base oligonucleotide complementary to tRNA^CUA. Radioactivity was analysed with a STORM Phosphorimager (Amersham Biosciences).
Aminoacylation assay in acid-urea gels. […] Following incubation at 37° C. for 5 to 30 minutes, the reaction was terminated by addition of an equal volume of 2× loading dye (0.3 M sodium acetate, 8 M urea, pH 5.0) and charged and uncharged tRNA species analysed by acid-urea acrylamide gel electrophoresis following the methods outlined in Jester et al. Samples were electrophoresed in 14% polyacrylamide gels buffered with a 0.3 M sodium acetate-7 M urea solution, pH 5.0, at 50 volts and 4° C. for 24 hours. The same buffer without urea was used in the electrode chambers, and was replaced with fresh buffer every 6-8 hours. Finished gels were transblotted for 2 hours at 40 volts in 4° C. in a blotting solution of 10 mM Tris-acetate, 5 mM sodium acetate, and 0.5 mM EDTA, pH 8.0. The blot was then cross-linked by ultraviolet radiation (15000 μJ/cm2 per side) then prehybrized in 0.25 M sodium phosphate buffer, pH 7.2, and 5.7% SDS for at least 30 minutes. In order to detect charged and uncharged tRNACUA a 72 base oligonucleotide complementary to full length of tRNACUA was labeled with γ-^32P ATP and polynucleotide kinase. The probe was hybridized with the blot overnight at room temperature, then agitated at 22° C. for 5 minute in 10 mM sodium citrate, 150 mM NaCl, 1% SDS, pH 7.0, then agitated with two changes of 5 mM sodium citrate, 75 mM sodium chloride, 1% SDS, pH 7.0, for 5 minutes each. Radioactivity on the blot was imaged and analyzed using a STORM Phosphorimager (Amersham Biosciences).

[5] = system: E. coli BW25141(DE3) transformed with pDLGUS; assay: beta-glucuronidase activity from uidA gene with UAG codon replacing AAA286; type: cell-based
Text: In order to avoid interference by the residue uidA gene, we employed a strain with most of uidA deleted, E. coli BW25141(DE3). This strain was transformed with pDLGUS, a variant of the pEC03 plasmid in which the mtmB1 gene was removed and the uidA gene introduced in its place.

T2 sequence (Q6WRH6 whole entry): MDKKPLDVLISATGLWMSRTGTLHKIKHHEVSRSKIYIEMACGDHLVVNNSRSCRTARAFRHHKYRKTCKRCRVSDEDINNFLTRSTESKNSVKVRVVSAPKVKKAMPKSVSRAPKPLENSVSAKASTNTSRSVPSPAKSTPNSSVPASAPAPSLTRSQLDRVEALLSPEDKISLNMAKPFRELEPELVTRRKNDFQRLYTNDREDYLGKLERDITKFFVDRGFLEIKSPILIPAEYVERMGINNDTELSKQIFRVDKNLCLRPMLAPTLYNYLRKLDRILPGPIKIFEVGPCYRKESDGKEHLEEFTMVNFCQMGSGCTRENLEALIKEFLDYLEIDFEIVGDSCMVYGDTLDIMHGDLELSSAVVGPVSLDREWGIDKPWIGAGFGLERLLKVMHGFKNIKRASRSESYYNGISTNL
T1 sequence (Q6WRH6 whole entry): as above

**Q.** For COC(=O)[C@H](CCCCNC(=O)[C@@H]1N=CC[C@H]1C)NC(=O)C(F)(F)F [Compound 7, Nα-Trifluoroacetyl-L-pyrrolysine methyl ester], which “change in NMR spectrum” value (NMR H/D exchange studies; CD3OD with D2O, 3-day period, no base) is on record?
**A.** No change was observed

**Q.** What about the “time until C5 proton peak completely disappeared (H/D exchange)” value (NMR H/D exchange studies; CD3OD/D2O with NaOD) of the same compound?
**A.** 25 h

**Q.** Which “degradation in LiOH observed by TLC” value ([1]; LiOH in water, after 24 h) does the source give for C[C@@H]1CC=N[C@H]1C(=O)NCCCC[C@H](N)C(=O)[O-].[Li+] [Compound 8, L-Pyrrolysine lithium salt] here?
**A.** two new bands

**Q.** What about the “degradation in NaOH monitored by ninhydrin TLC” value ([1]; NaOH 6 M 20 μL added to 0.15 M solution, over 3 days) of the same compound?
**A.** One new band

**Q.** What about the “degradation in TFA observed by TLC” value ([1]; TFA in MeOH, after 1 h) of the same compound?
**A.** one new band

**Q.** For NCCCC[C@H](N)C(=O)O [lysine, reference compound], which “lysyl- or pyrrolysyl-tRNA synthetase activity” value (His6-PylS) is on record?
**A.** no lysyl-tRNA synthetase activity was detectable

**Q.** And the “UAG readthrough: expression of 50-kDa MtmB” value [2]?
**A.** could not be replaced

**Q.** What about the “isotopic exchange into ATP above background” value (PylS-His6 [3]; incubation as long as 30 min, canonical 20 amino acids each at 100 μM, or 1 mM lysine) of the same compound?
**A.** no detectable isotopic exchange

**Q.** What about the “formation of charged tRNACUA species” value (PylS-His6 [4]; 20 canonical amino acids each at 50 μM, or only 50 μM lysine, no pyrrolysine) of the same compound?
**A.** not formed

**Q.** What about the “aminoacylation of tRNA^lys in the M. acetivorans tRNA pool” value (PylS-His6 [4]) of the same compound?
**A.** does not aminoacylate

**Q.** For C[C@@H]1CC=N[C@H]1C(=O)NCCCC[C@H](N)C(=O)O [pyrrolysine, lysine in amide linkage with (4R,5R)-4-methyl-pyrroline-5-carboxylate], which “lysyl- or pyrrolysyl-tRNA synthetase activity” value (His6-PylS) is on record?
**A.** does have pyrrolysyl-tRNA synthetase activity

**Q.** And the “UAG readthrough: expression of 50-kDa MtmB” value [2]?
**A.** large amounts of 50-kDa MtmB

**Q.** What about the “increase of beta-glucuronidase activity” value ([5]; 1 mM synthetic pyrrolysine versus absence of pyrrolysine) of the same compound?
**A.** approximately 100 fold

**Q.** What about the beta-glucuronidase activity ([5]; induced with IPTG in the presence of 1 mM synthetic pyrrolysine) of the same compound?
**A.** 4. umol/min·mg protein

**Q.** And the Km (PylS-His6 [3]; 37° C., pH 7.2, other substrate held constant, read-out: apparent Km)?
**A.** 53 µM

**Q.** What about the “apparent Vmax” value (PylS-His6 [3]; exchange reaction, 37° C.) of the same compound?
**A.** 120

**Q.** And the “maximal conversion of deacylated tRNACUA to charged species” value (PylS-His6 [4]; deacylated M. acetivorans cellular tRNA pool, incubation with pyrrolysine, ATP and PylS-His6)?
**A.** 50%

**Q.** What about the “maximum of tRNACUA transcribed in vitro aminoacylated” value (PylS-His6 [4]; in vitro transcribed tRNACUA, synthetic pyrrolysine, ATP-dependent) of the same compound?
**A.** 43%

**Q.** What about the “aminoacylation of tRNA^lys in the M. acetivorans tRNA pool” value (PylS-His6 [4]) of the same compound?
**A.** does not aminoacylate
